Marks after values point to notes of the source that are not given here.
Columns and labels:
CDK12 = conditions: ref Johnson et al, 2016; cited from earlier work
[1] = pharmacokinetics, plasma concentrations by LC-MS/MS; conditions: for half-life / AUC / Cmax / Tmax: human, plasma, intravenous; for AUC / Cmax: mean
[2] = test system: PHA-stimulated lymphocytes in whole blood; experiment: ex vivo lymphocyte stimulation assay; assay type: cell-based, human
[3] = test system: patients with advanced malignancies; experiment: phase 1 dose escalation: MAD, RP2D and dose-limiting toxicities; assay type: in vivo, human
[4] = 2-h infusion, 29.6 mg m^−2, n=5
[5] = 2-h infusion, 41.4 mg m^−2, n=6

## CCc1cnn2c(NCc3ccc[n+]([O-])c3)cc(N3CCCC[C@H]3CCO)nc12 [dinaciclib, Dinaciclib]
CDK12
  CDK12 inhibition: CDK12 inhibition by dinaciclib has also been demonstrated
[1]; 2-h infusion, 1.85 mg m^−2, n=1
  CL, mean: 13.6 L h^−1 m^−2
[1]; 2-h infusion, 3.7 mg m^−2, n=1
  CL, mean: 11.0 L h^−1 m^−2
  t1/2, mean: 2.84 h
[1]; 2-h infusion, 7.4 mg m^−2, n=1
  CL, mean: 7.61 L h^−1 m^−2
[1]; 2-h infusion, 14.8 mg m^−2, n=1
  CL, mean: 13.8 L h^−1 m^−2
[1]; [4]
  CL, mean: 13.6 ^c L h^−1 m^−2
  t1/2, mean: 2.84 ^c h
[1]; [5]
  CL, mean: 26.8 L h^−1 m^−2
  t1/2, mean: 2.86 h
[1]; 2-h infusion, 50 mg m^−2, n=15
  CL, mean: 16.1 L h^−1 m^−2
[1]; 2-h infusion, 58 mg m^−2, n=4
  CL, mean: 18.9 L h^−1 m^−2
[1]; 8-h infusion, 7.4 mg m^−2, n=6
  Cmax, mean: 95.5 ng/mL
[1]; 8-h infusion, 14.8 mg m^−2, n=3
  Cmax, mean: 95.8 ng/mL
[1]; 8-h infusion, 41.4 mg m^−2, n=2
  Cmax, mean: 429 ng/mL
[1]; based on the PK findings
  dose dependence of CL: dose-independent
[1]
  half-life: 1.4 to 3.3 h
[1]; 1.85 mg m^−2, AUC(l), 2-h infusion, 1.85 mg m^−2, n=1
  AUC: 136 ng·h/mL
[1]; 1.85 mg m^−2, AUC(tf), 2-h infusion, 1.85 mg m^−2, n=1
  AUC: 135 ng·h/mL
[1]; 1.85 mg m^−2, Cmax, 2-h infusion, 1.85 mg m^−2, n=1
  Cmax: 62.5 ng/mL
[1]; 7.4 mg m^−2, AUC(l), 2-h infusion, 7.4 mg m^−2, n=1
  AUC: 975 ng·h/mL
[1]; 7.4 mg m^−2, AUC(tf), 2-h infusion, 7.4 mg m^−2, n=1
  AUC: 974 ng·h/mL
[1]; 7.4 mg m^−2, AUC(tf), 8-h infusion, 7.4 mg m^−2, n=6
  AUC: 687 ng·h/mL
[1]; 7.4 mg m^−2, AUC(tf), 24-h infusion, 7.4 mg m^−2, n=4
  AUC: 877 ng·h/mL
[1]; 7.4 mg m^−2, Cmax, 2-h infusion, 7.4 mg m^−2, n=1
  Cmax: 353 ng/mL
[1]; 7.4 mg m^−2, Cmax, 24-h infusion, 7.4 mg m^−2, n=4
  Cmax: 41.4 ng/mL
[1]; 7.4 mg m^−2, Tmax, median, 8-h infusion, 7.4 mg m^−2, n=4
  Tmax: 4 h
[1]; 7.4 mg m^−2, Tmax, median, 24-h infusion, 7.4 mg m^−2, n=1
  Tmax: 24 h
[1]; 10.4 mg m^−2, AUC(tf), 24-h infusion, 10.4 mg m^−2, n=3
  AUC: 982 ng·h/mL
[1]; 10.4 mg m^−2, Cmax, 24-h infusion, 10.4 mg m^−2, n=3
  Cmax: 51.4 ng/mL
[1]; 10.4 mg m^−2, Tmax, median, 24-h infusion, 10.4 mg m^−2, n=2
  Tmax: 15 h
[1]; 14.6 mg m^−2, AUC(tf), 24-h infusion, 14.6 mg m^−2, n=3
  AUC: 2590 ng·h/mL
[1]; 14.6 mg m^−2, Cmax, 24-h infusion, 14.6 mg m^−2, n=3
  Cmax: 161 ng/mL
[1]; 14.6 mg m^−2, Tmax, median, 24-h infusion, 14.6 mg m^−2, n=2
  Tmax: 15 h
[1]; 14.8 mg m^−2
  half-life: 2.78 h
[1]; 14.8 mg m^−2, AUC(l), 2-h infusion, 14.8 mg m^−2, n=1
  AUC: 1060 ng·h/mL
[1]; 14.8 mg m^−2, AUC(tf), 2-h infusion, 14.8 mg m^−2, n=1
  AUC: 1060 ng·h/mL
[1]; 14.8 mg m^−2, AUC(tf), 8-h infusion, 14.8 mg m^−2, n=3
  AUC: 702 ng·h/mL
[1]; 14.8 mg m^−2, Cmax, 2-h infusion, 14.8 mg m^−2, n=1
  Cmax: 396 ng/mL
[1]; 14.8 mg m^−2, Tmax, median, 8-h infusion, 14.8 mg m^−2, n=3
  Tmax: 4 h
[1]; 29.6 mg m^−2, AUC(l), 2-h infusion, 29.6 mg m^−2, n=5
  AUC: 2440 ng·h/mL
[1]; 29.6 mg m^−2, AUC(tf), 2-h infusion, 29.6 mg m^−2, n=5
  AUC: 2060 ng·h/mL
[1]; 29.6 mg m^−2, AUC(tf), 8-h infusion, 29.6 mg m^−2, n=3
  AUC: 2300 ng·h/mL
[1]; 29.6 mg m^−2, Cmax, 2-h infusion, 29.6 mg m^−2, n=6
  Cmax: 890 ng/mL
[1]; 29.6 mg m^−2, Cmax, 8-h infusion, 29.6 mg m^−2, n=3
  Cmax: 333 ng/mL
[1]; 29.6 mg m^−2, Tmax, median, 8-h infusion, 29.6 mg m^−2, n=3
  Tmax: 4 h
[1]; 41.4 mg m^−2, AUC(l), 2-h infusion, 41.4 mg m^−2, n=6
  AUC: 2880 ng·h/mL
[1]; 41.4 mg m^−2, AUC(tf), 2-h infusion, 41.4 mg m^−2, n=6
  AUC: 2860 ng·h/mL
[1]; 41.4 mg m^−2, AUC(tf), 8-h infusion, 41.4 mg m^−2, n=2
  AUC: 3300 ng·h/mL
[1]; 41.4 mg m^−2, Cmax, 2-h infusion, 41.4 mg m^−2, n=6
  Cmax: 1300 ng/mL
[1]; 41.4 mg m^−2, Tmax, median, 8-h infusion, 41.4 mg m^−2, n=1
  Tmax: 4 h
[1]; 50 mg m^−2, AUC(l), 2-h infusion, 50 mg m^−2, n=15
  AUC: 3940 ng·h/mL
[1]; 50 mg m^−2, AUC(tf), 2-h infusion, 50 mg m^−2, n=15
  AUC: 3910 ng·h/mL
[1]; 50 mg m^−2, AUC(tf), 8-h infusion, 50 mg m^−2, n=2
  AUC: 3670 ng·h/mL
[1]; 50 mg m^−2, Cmax, 2-h infusion, 50 mg m^−2, n=15
  Cmax: 1810 ng/mL
[1]; 50 mg m^−2, Cmax, 8-h infusion, 50 mg m^−2, n=2
  Cmax: 475 ng/mL
[1]; 50 mg m^−2, Tmax, median, 8-h infusion, 50 mg m^−2, n=2
  Tmax: 8 h
[1]; 58 mg m^−2, AUC(l), 2-h infusion, 58 mg m^−2, n=4
  AUC: 3370 ng·h/mL
[1]; 58 mg m^−2, AUC(tf), 2-h infusion, 58 mg m^−2, n=4
  AUC: 3360 ng·h/mL
[1]; 58 mg m^−2, Cmax, 2-h infusion, 58 mg m^−2, n=4
  Cmax: 1460 ng/mL
[1]; Tmax, after the initiation of the 2-h infusion, 35 patients in Part 1, across doses
  Tmax: 1 to 2 h
[1]; Tmax, after the start of the 8-h infusion, 16 patients
  Tmax: 4 to 8 h
[1]; Tmax, after the start of the 24-h infusion
  Tmax: 6 to 24 h
[2]; 2-h infusions
  dose achieving reductions to <5% BrdU incorporation: ≥ 7.4 mg m^−2
  dose reproducibly achieving a sustained PD effect through 8 h: ≥ 29.6 mg m^−2
  plasma concentration at which reductions to <5% BrdU incorporation were observed: ~200 ng/mL
[2]; 8-h infusions
  dose achieving suppression of lymphocyte proliferation: ≥ 7.4 mg m^−2
[2]; part 1, 2-h infusions
  patients with pharmacodynamic reductions in BrdU incorporation: 24 of 35
[2]; part 1, of the 24 patients with reductions
  patients with reduction of PHA-stimulated BrdU incorporation to <5% at at least one post-dose time point: 23
[3]; 2-h i.v. infusion every 21 days
  recommended phase 2 dose (RP2D): 50 mg m^−2
[3]; 2-h infusion
  maximum administered dose (MAD): 58 mg m^−2
[3]; 2-hour infusion, 50 mg/m2 (RP2D), 15 subjects treated
  No of subjects with DLT in cycle 1: 4 of 15
[3]; 8-h i.v. infusion every 3 weeks
  recommended phase 2 dose (RP2D): 7.4 mg m^−2
[3]; 24-h i.v. infusion every 3 weeks
  recommended phase 2 dose (RP2D) / highest safe dose: 10.4 mg m^−2
